From US11566260B2, “Potentiating agents for protecting plants from fungal infections” (UNIVERSITE D'ANGERS, priority 2012, dated 2023) come the findings set out here.

For the experiment, the system named is Alternaria brassicicola. Nature of the experiment: Test A: growth of Alternaria brassicicola conidia followed by nephelometry, to find the non-fungicidal amount. Type of experiment: cell-based. On the procedure: Suspensions of fungal conidia (starting material being for example 10^5 conidia/mL) are cultured in liquid medium, such as, for example, 300 μL of PBD medium, on microplate wells at 25° C. with shaking at 175 rpm for 5 minutes every 10 minutes. Increasing concentrations of the tested product are added on wells, and fungal growth is measured, during at least 5 hours, preferably at least 10, 20, 30 hours. Methods for measuring fungal growth are well known from the skilled artisan. Examples of such methods include, but are not limited to, photometry, such as, for example, spectrophotometric methods; or nephelometry, such as, for example, laser nephelometry as described in Joubert et al (Biotechniques, 2010, 48:399-404). Growth inhibition is measured by comparing the Area Under Curves (AUC) of treated samples and of untreated controls. Test A is carried out in Example 1.
Alternaria brassicicola strains were cultivated at 24° C. on potato dextrose (PD) medium (Cat. No. 213200; Becton Dickinson, USA).
For inoculum preparation, conidia were collected from 8-days-old solid cultures by adding PD broth followed by gentle scraping of the agar plates. They were counted in a Thoma's chamber and the conidial suspensions were diluted to the concentration of 10^5 conidia/mL.
Growth was automatically recorded for at least 30 hours at 25° C. using a nephelometric reader (NEPHELOstar Galaxy, BMG Labtech, Germany) equipped with a 635-nm laser as radiation source. During incubation, the 96-well plates were subjected to shaking at 175 rpm for 5 minutes every 10 minutes. Measurements were done every hour with a gain value of 90 and a percentage of the maximum value of 20%. Each well was measured for 0.1 second with a laser beam of 2.5 mm.
Chelerythrin (25 μM or 50 μM, test wells) or 10 μL of DMSO (chelerythrin solvent, control wells) were added on wells, and growth curves were drawn (FIG. 1).
Camalexin (10, 20, 40 or 60 μM, test wells) or 10 μL of DMSO (chelerythrin solvent, control wells) were added on wells, and growth curves were drawn (FIG. 2).

Take `COc1ccc2c(c[n+](C)c3c4cc5c(cc4ccc23)OCO5)c1OC` [Chelerythrin]: the “Alternaria brassicicola growth inhibition” value (25 μM chelerythrin, nephelometry, at least 30 hours, 25° C., vs DMSO control) is “does not inhibit”. The compound also came in with a non-fungicidal amount (Alternaria brassicicola, in vitro) of 25 µM.
